Measurements as given in patent US9181288B2, “Azepane derivatives and methods of treating hepatitis B infections” (Novira Therapeutics, Inc., priority 2014, dated 2015).

Legend:
[1] = molecular target: HBV C150Bo capsid protein (mutant C150 HBV core protein labeled with BODIPY-FL) (Hepatitis B virus genotype D subtype adw, UniProt P03147, C107A/C48A/C61A/R150C); assay: HBV assembly assay (fluorescence quenching in vitro capsid assembly); assay type: biochemical; details: at about 10 μM; 50 mM Hepes pH 7.5, 150 mM NaCl, 1 hour room temperature
[2] = tested on: HBV replication in HepG2-2.2.15 cells; assay: Inhibition of HBV replication dot-blot assay; assay type: cell-based; details: Hepatitis B virus, 144 h, six days, reduction in HBV DNA levels
Description: Compounds active in the HBV assembly assay are tested for their activity and toxicity in cellular assay. In the first anti-viral assay, the ability of compounds to inhibit HBV replication in an HBV-producing hepatoma cell line using the dot-blot method is evaluated.
Briefly, confluent monolayers of HepG2-2.2.15 cells are incubated with complete medium containing various concentrations of a test compound. Three days later, the culture medium is replaced with fresh medium containing the appropriately diluted test compound. Six days following the initial administration of the test compound, the cell culture supernatant is collected, and cell lysis is performed. The samples are applied onto Nylos membranes and DNA is immobilized to the membrane by UV cross-linking. After pre-hybridization, the HBV probe is added and the hybridization is performed overnight. The membranes are exposed to the Kodak films; antiviral activity is calculated from the reduction in HBV DNA levels (EC50). The EC50 for antiviral activity is calculated from the dose response curves of active compounds. Assay performance over time is monitored by the use of the standard positive control compounds ETV, BAY 41-4109, and HAP-1.
Selected compounds were tested for their activity and toxicity in cellular assay. In the first anti-viral assay, the ability of compounds to inhibit HBV replication in an HBV-producing hepatoma cell line using the dot-blot method was evaluated.
Confluent monolayers of HepG2-2.2.15 cells were incubated with complete medium containing various concentrations of a test compound. Three days later, the culture medium was replaced with fresh medium containing the appropriately diluted test compound. Six days following the initial administration of the test compound, the cell culture supernatant was collected, and cell lysis was performed. The samples were applied onto Nylos membranes and DNA was immobilized to the membrane by UV cross-linking. After pre-hybridization, the HBV probe was added and the hybridization was performed overnight. The membranes were exposed to the Kodak films; antiviral activity was calculated from the reduction in HBV DNA levels (EC50). The EC50 for antiviral activity was calculated from the dose response curves of active compounds. Assay performance over time was monitored by the use of the standard positive control compounds ETV, BAY 41-4109, and HAP-1.

Sequence of HBV C150Bo capsid protein (mutant C150 HBV core protein labeled with BODIPY-FL) (P03147 1-150 C48A/C61A/C107A/R150C): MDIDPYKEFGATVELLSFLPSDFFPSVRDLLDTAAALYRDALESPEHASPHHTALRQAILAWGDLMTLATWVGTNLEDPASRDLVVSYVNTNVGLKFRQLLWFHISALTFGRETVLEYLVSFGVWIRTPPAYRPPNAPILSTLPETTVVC

| SMILES | Activity (HBV assembly assay) [1] | inhibition at 10 µM [2] |
| --- | --- | --- |
| CC(=O)O[C@@H]1CC[C@H](OC(C)=O)CN(S(=O)(=O)c2cc(C(=O)Nc3ccc(F)c(Cl)c3)ccc2F)C1 [Compound 2626_D2] | + (‘+’ indicates >50% activity at about 10 μM) | > 50% |
| O=C(Nc1cc(F)c(F)c(F)c1)c1cccc(S(=O)(=O)N2CCOCC(O)C2)c1 (stereo not drawn) [Compound 1975] | + (‘+’ indicates >50% activity at about 10 μM) | > 50% |
| CC(=O)O[C@@H]1CC[C@H](OC(C)=O)CN(S(=O)(=O)c2cc(C(=O)Nc3cc(F)c(F)c(F)c3)ccc2F)C1 [Compound 2625_D2] | + (‘+’ indicates >50% activity at about 10 μM) | > 50% |
| CC(=O)O[C@@H]1CC[C@H](O)CN(S(=O)(=O)c2cc(C(=O)Nc3ccc(F)c(Cl)c3)ccc2F)C1 [Compound 2619_D2] | + (‘+’ indicates >50% activity at about 10 μM) | > 50% |
| O=C(Nc1ccc(F)c(Cl)c1)c1ccc(CO)c(S(=O)(=O)N2CCCC(F)CC2)c1 (stereo not drawn) [Compound 1769] | + (‘+’ indicates >50% activity at about 10 μM) | > 50% |
| O=C(Nc1ccc(F)c(F)c1)c1ccc(F)c(S(=O)(=O)N2CCOCC(O)C2)c1 (stereo not drawn) [Compound 1894] | + (‘+’ indicates >50% activity at about 10 μM) | > 50% |
| O=C(Nc1ccc(F)c(Cl)c1)c1cccc(S(=O)(=O)N2CCOCC(O)C2)c1 (stereo not drawn) [Compound 1977] | + (‘+’ indicates >50% activity at about 10 μM) | > 50% |
| O=C(Nc1ccc(F)c(Cl)c1)c1cc(S(=O)(=O)N2CCCC(O)CC2)c2[nH]cnc2c1 (stereo not drawn) [Compound 2033] | + (‘+’ indicates >50% activity at about 10 μM) | > 50% |
| O=C(Nc1ccc(F)c(Cl)c1)c1ccc(F)c(S(=O)(=O)N2CCC[C@@H](O)CC2)c1 [Compound 1766_E1] | + (‘+’ indicates >50% activity at about 10 μM) | > 50% |
| O=C(Nc1ccc(F)c(Cl)c1)c1ccc(F)c(S(=O)(=O)N2CCCC(O)C(O)C2)c1 (stereo not drawn) [Compound 1909] |  | > 50% |
| O=C(Nc1ccc(F)c(Cl)c1)c1ccc(F)c(S(=O)(=O)N2CC(O)CC3CC3C2)c1 (stereo not drawn) [Compound 2492] | + (‘+’ indicates >50% activity at about 10 μM) | > 50% |
| O=C(Nc1cc(F)c(F)c(F)c1)c1ccc(F)c(S(=O)(=O)N2CCOCC(O)C2)c1 (stereo not drawn) [Compound 1895] | + (‘+’ indicates >50% activity at about 10 μM) | > 50% |
| O=C(Nc1ccc(F)c(F)c1)c1ccc(F)c(S(=O)(=O)N2CCCC(F)C(O)C2)c1 (stereo not drawn) [Compound 1821] | + (‘+’ indicates >50% activity at about 10 μM) | > 50% |
| O=C(Nc1ccc(F)c(Cl)c1)c1ccc(F)c(S(=O)(=O)N2CCCC(F)[C@@H](O)C2)c1 (stereo partly drawn) [Compound 1822_D1] | + (‘+’ indicates >50% activity at about 10 μM) | > 50% |
| Cc1ccc(C(=O)Nc2cc(F)c(F)c(F)c2)cc1S(=O)(=O)N1CCCCC(O)C1 (stereo not drawn) [Compound 1915] | + (‘+’ indicates >50% activity at about 10 μM) | > 50% |
| CC(=O)OC1CCCCN(S(=O)(=O)c2cc(C(=O)Nc3cc(F)c(F)c(F)c3)ccc2F)C1 (stereo not drawn) [Compound 2024] | + (‘+’ indicates >50% activity at about 10 μM) | > 50% |
| COc1ccc(C(=O)Nc2ccc(F)c(F)c2)cc1S(=O)(=O)N1CCOCC(O)C1 (stereo not drawn) [Compound 1979] | + (‘+’ indicates >50% activity at about 10 μM) | > 50% |
| O=C(Nc1cc(F)c(F)c(F)c1)c1ccc(F)c(S(=O)(=O)N2CC(O)CC3CC3C2)c1 (stereo not drawn) [Compound 2548] | + (‘+’ indicates >50% activity at about 10 μM) | > 50% |

| SMILES | Activity (HBV assembly assay) [1] | inhibition at 10 µM [2] |
| --- | --- | --- |
| O=C(Nc1ccc(F)c(F)c1)c1ccc(F)c(S(=O)(=O)N2CCCC(F)[C@@H](O)C2)c1 (stereo partly drawn) [Compound 1821_D1] | + (‘+’ indicates >50% activity at about 10 μM) | > 50% |
| O=C(Nc1cc(F)c(F)c(F)c1)c1ccc(CF)c(S(=O)(=O)N2CC(O)CC3CC3C2)c1 (stereo not drawn) [Compound 2550] | + (‘+’ indicates >50% activity at about 10 μM) | > 50% |
| CC1(O)CCCCN(S(=O)(=O)c2cc(C(=O)Nc3ccc(F)c(F)c3)ccc2F)C1 (stereo not drawn) [Compound 1891] | + (‘+’ indicates >50% activity at about 10 μM) | > 50% |
| O=C(Nc1cc(F)c(F)c(F)c1)c1ccc(F)c(S(=O)(=O)N2CCCC(O)C(F)(F)C2)c1 (stereo not drawn) [Compound 2199] | + (‘+’ indicates >50% activity at about 10 μM) | > 50% |
| O=C(Nc1cc(F)c(F)c(F)c1)c1ccc(F)c(S(=O)(=O)N2CCOCC(O)(C3CC3)C2)c1 (stereo not drawn) [Compound 1987] | + (‘+’ indicates >50% activity at about 10 μM) | > 50% |
| O=C(Nc1ccc(F)c(Cl)c1)c1ccc(F)c(S(=O)(=O)N2CCC[C@H](O)CC2)c1 [Compound 1766_E2] | + (‘+’ indicates >50% activity at about 10 μM) | > 50% |
| Cc1ccc(C(=O)Nc2ccc(F)c(F)c2)cc1S(=O)(=O)N1CCCCC(O)C1 (stereo not drawn) [Compound 1914] | + (‘+’ indicates >50% activity at about 10 μM) | > 50% |
| O=C(Nc1ccc(F)c(Cl)c1)c1ccc(CO)c(S(=O)(=O)N2CCCCC(F)C2)c1 (stereo not drawn) [Compound 1768] | + (‘+’ indicates >50% activity at about 10 μM) | > 50% |
| CC(=O)O[C@@H]1CC[C@H](O)CN(S(=O)(=O)c2cc(C(=O)Nc3cc(F)c(F)c(F)c3)ccc2F)C1 [Compound 2618_D2] | + (‘+’ indicates >50% activity at about 10 μM) | > 50% |
| O=C(Nc1ccc(F)c(Cl)c1)c1ccc(F)c(S(=O)(=O)N2CCCC(F)CC2)c1 (stereo not drawn) [Compound 2123] | + (‘+’ indicates >50% activity at about 10 μM) | > 50% |
| O=C(Nc1ccc(F)c(Cl)c1)c1ccc(F)c(S(=O)(=O)N2CCCC[C@H](O)C2)c1 [Compound 1763_E2] | + (‘+’ indicates >50% activity at about 10 μM) | > 50% |
| CC1(O)CCCCN(S(=O)(=O)c2cc(C(=O)Nc3cc(F)c(F)c(F)c3)ccc2F)C1 (stereo not drawn) [Compound 1892] | + (‘+’ indicates >50% activity at about 10 μM) | > 50% |
| O=C(Nc1ccc(F)c(Cl)c1)c1ccc(CF)c(S(=O)(=O)N2CCCC(O)CC2)c1 (stereo not drawn) [Compound 1819] | + (‘+’ indicates >50% activity at about 10 μM) | > 50% |
| O=C(Nc1cc(F)c(F)c(F)c1)c1ccc(CF)c(S(=O)(=O)N2CCOCC(O)C2)c1 (stereo not drawn) [Compound 1981] | + (‘+’ indicates >50% activity at about 10 μM) | > 50% |
| O=C(Nc1ccc(F)c(Cl)c1)c1ccc(F)c(S(=O)(=O)N2CCOCC(O)C2)c1 (stereo not drawn) [Compound 1893] | + (‘+’ indicates >50% activity at about 10 μM) | > 50% |
| O=C(Nc1cc(F)c(F)c(F)c1)c1ccc(CF)c(S(=O)(=O)N2CCOCC(O)(C3CC3)C2)c1 (stereo not drawn) [Compound 2505] | + (‘+’ indicates >50% activity at about 10 μM) | > 50% |
| COc1ccc(C(=O)Nc2ccc(F)c(Cl)c2)cc1S(=O)(=O)N1CCCC(O)C(F)C1 (stereo not drawn) [Compound 2114_D2] | + (‘+’ indicates >50% activity at about 10 μM) |  |
| O=C(Nc1ccc(F)c(Cl)c1)c1ccc(CF)c(S(=O)(=O)N2CCCC(O)CC2)c1 (stereo not drawn) [Compound 1916] | + (‘+’ indicates >50% activity at about 10 μM) |  |
